Assay results taken from PubChem BioAssay AID1996.
≈ marks a conversion by molar mass, not a printed value.

Conditions: buffer; pH 7.4; 200.0 µM

Going from O=C(COC(=O)CCC(=O)c1ccc(F)cc1)NCCc1ccccc1 to O=C(CNC(=O)c1ccccc1F)OCC(=O)c1ccc(Cl)s1, the solubility kinetic rises from 49.1 µg/mL (≈ 137 µM) to > 53.4 µg/mL.

First: Cc1ccc(C)c(OCCCC(=O)NC2CCCCC2)c1
Second: COc1ccc(C)cc1C(=O)CCC(=O)NC1CCCCC1
The solubility kinetic of the first is 7.1-fold lower: 3 µg/mL (≈ 10.4 µM) for the first, 21.2 µg/mL (≈ 69.9 µM) for the second.

First: CCN(CC)CC(O)Cn1c(-c2cccc(Cl)c2)nc2cc(C)c(C)cc21 (stereo unspecified)
Second: Cc1cc(C)c(C#N)c(SC(C(=O)NC(C)(C)C)c2ccccc2)n1 (stereo unspecified)
The solubility kinetic of the first is higher: 53.4 µg/mL (≈ 138 µM) for the first, < 0.3 µg/mL for the second.

First: COC(=O)C1CCN(c2ccc([N+](=O)[O-])cc2[N+](=O)[O-])CC1
Second: CS(=O)(=O)N1CCN(c2ccc([N+](=O)[O-])cc2C(F)(F)F)CC1
The solubility kinetic of the first is higher: > 46.4 µg/mL for the first, 39.9 µg/mL (≈ 113 µM) for the second.

Cc1ccc(-c2c[n+](=O)c3c(n2[O-])CCC3)cc1 and Cc1ccc(S(=O)(=O)Nc2nc3ccccc3nc2N2CCOCC2)cc1 cannot be ordered by solubility kinetic: > 36.3 µg/mL for the first, > 57.7 µg/mL for the second.

First: C=CCNc1oc(-c2cccs2)nc1S(=O)(=O)c1ccccc1
Second: Cc1ccc(NS(=O)(=O)c2cccs2)nc1
The solubility kinetic of the first is lower: 16.8 µg/mL (≈ 48.5 µM) for the first, > 38.1 µg/mL for the second.

First: Cc1ccc(C(=O)NC(C)c2ccc(S(N)(=O)=O)cc2)s1 (stereo unspecified)
Second: Cc1cccc(NC(=O)Nc2ccc(S(N)(=O)=O)cc2)c1
The solubility kinetic of the first is higher: > 48.7 µg/mL for the first, 22.1 µg/mL (≈ 72.4 µM) for the second.

Compared with CCOC(=O)Cc1csc(NC(=O)CN2C(=O)c3ccccc3C2=O)n1, COC(=O)Cc1c(C)nc(SCc2ccccc2)[nH]c1=O is 3.3-fold lower in solubility kinetic: 54.3 µg/mL (≈ 145 µM) for the first, 16.4 µg/mL (≈ 53.9 µM) for the second.

CCOC(=O)C(=O)C1=CN(Cc2ccccc2)C=C(C#N)C1 and CCOc1ccccc1NC(=O)N1CCCC1C(=O)NCc1ccco1 (stereo unspecified) cannot be ordered by solubility kinetic: > 44.4 µg/mL for the first, 48.2 µg/mL (≈ 135 µM) for the second.

Going from CCOc1ccc(N2C(=O)CSC2=NC#N)cc1 to O=C1CSC(=S)N1c1ccc(Cl)c(Cl)c1, the solubility kinetic falls from 38.3 µg/mL (≈ 147 µM) to < 0.6 µg/mL.

NC(=O)c1[nH]cnc1N and Cc1cc(C)nc(/N=C(\N)Nc2ccc(OCCC(C)C)cc2)n1 cannot be ordered by solubility kinetic: > 18.9 µg/mL for the first, > 49.1 µg/mL for the second.

Going from CN(Cc1nc2ccccc2n1C)C(=O)c1ccco1 to CN1CCN(CCc2nc3cc(NC(=O)c4ccco4)ccc3n2C)CC1, the solubility kinetic rises from 39.9 µg/mL (≈ 148 µM) to > 55.1 µg/mL.

O=[N+]([O-])c1ccc(CNc2ccc(Cl)cc2)s1 and COc1ccc(Cl)cc1NC(=O)c1noc(C)c1[N+](=O)[O-] are within 1.5-fold of each other in solubility kinetic: 6.5 µg/mL (≈ 24.2 µM) for the first, 9 µg/mL (≈ 28.9 µM) for the second.

Cc1ccc(C23CCC(=O)N2C(C(=O)O)CS3)c(C)c1 (stereo unspecified) and Cc1ccc(CC(=O)NC2CCN(C)CC2)cc1 cannot be ordered by solubility kinetic: > 43.7 µg/mL for the first, > 37 µg/mL for the second.

O=[N+]([O-])c1ccc(C(O)CN2CCOCC2)cc1 (stereo unspecified) and CC(O)CNc1ccc([N+](=O)[O-])cc1S(=O)(=O)N1CCOCC1 (stereo unspecified) cannot be ordered by solubility kinetic: > 37.8 µg/mL for the first, > 51.8 µg/mL for the second.

First: O=S(=O)(Nc1nccs1)c1ccc(NS(=O)(=O)c2c(F)cc(F)c(Cl)c2F)cc1
Second: Cc1cccc(NC(=O)c2ccc3c(c2)CCN3S(C)(=O)=O)c1C
The solubility kinetic of the first is higher: > 72.6 µg/mL for the first, 1.6 µg/mL (≈ 4.65 µM) for the second.

Going from CNC(=O)C(=O)Nc1cc2c3c(c1)CCC(=O)N3CCC2 to O=C(O)CC1(CC(=O)Nc2ccc3sccc3c2)CCCCC1, the solubility kinetic rises from 19 µg/mL (≈ 66.1 µM) to 42.6 µg/mL (≈ 129 µM) (2.2-fold).

First: COc1ccccc1-c1cc(C(=O)NC2CCCC2)no1
Second: COc1ccccc1/C=C/C(=O)OC(C)CN1CCCCC1.Cl (stereo unspecified)
The solubility kinetic of the first is lower: 6.1 µg/mL (≈ 21.3 µM) for the first, > 51 µg/mL for the second.

First: CCCCCn1c(N)c(C(=O)NCc2cccs2)c2nc3ccccc3nc21
Second: O=C(Nc1ccc(Br)cn1)c1cccc2ccccc12
The solubility kinetic of the first is 1.8-fold higher: 0.9 µg/mL (≈ 2.29 µM) for the first, 0.5 µg/mL (≈ 1.53 µM) for the second.

Compared with CCN1C(=O)N(CC)C2C1N(CO)C(=O)N2CO (stereo unspecified), Cc1noc(C)c1C(=O)OCC(=O)C12CC3CC(CC(C3)C1)C2 is lower in solubility kinetic: > 38.7 µg/mL for the first, < 0.7 µg/mL for the second.

Compared with Nc1ccc(C(=O)Nc2cccc(NC(=O)c3ccc(N)cc3)c2)cc1, O=C(Nc1ccc(Nc2ccccc2)cc1)Nc1ccccc1Cl is lower in solubility kinetic: 34.8 µg/mL (≈ 100 µM) for the first, < 0.2 µg/mL for the second.

Compared with COc1cc(/C=C/c2onc(C)c2[N+](=O)[O-])cc(OC)c1OC, Cc1ccc(C(C)C)c(Oc2cnccn2)c1 is higher in solubility kinetic: < 0.3 µg/mL for the first, 4.3 µg/mL (≈ 18.8 µM) for the second.

Compared with CC(C)(C)NC(=O)COc1ccc(CNCc2ccccn2)cc1.Cl, CCOc1ccccc1NC(=O)NC(C)c1ccc2c(c1)OCO2 (stereo unspecified) is lower in solubility kinetic: > 54.6 µg/mL for the first, 3.4 µg/mL (≈ 10.4 µM) for the second.

Compared with O=[N+]([O-])c1cc(C(F)(F)F)ccc1NC1CCN(Cc2ccccc2)CC1, Clc1cccc(CN2CCCCCC2)c1 is 5.5-fold higher in solubility kinetic: 2.6 µg/mL (≈ 6.85 µM) for the first, 14.3 µg/mL (≈ 63.9 µM) for the second.

Compared with CCOc1ccc(OCc2ccc(C(=O)N3CCCCC3)o2)cc1, Cl.Oc1ccc(CC2(N3CCCC3)CCCCC2)cc1 is lower in solubility kinetic: > 49.4 µg/mL for the first, 40.5 µg/mL for the second.

Going from CCCNC(=S)N1CCC(n2cnc3ccccc32)CC1 to CCOc1nc(Nc2ccccc2)nc(OCC)n1, the solubility kinetic falls from > 45.4 µg/mL to 38 µg/mL (≈ 146 µM).

Compared with CN(C(=O)Cn1cc([N+](=O)[O-])ccc1=O)C1CCCCC1, CC(=O)c1cn(Cc2ccccc2F)c2ccccc12 is lower in solubility kinetic: 41.7 µg/mL (≈ 142 µM) for the first, < 0.6 µg/mL for the second.

CC1=CC(C)(C)[N+](C)(C)c2ccccc21.[I-] and CSc1nc(N(C)C)c2ccccc2n1 are within 1.5-fold of each other in solubility kinetic: 41 µg/mL for the first, 31.8 µg/mL (≈ 145 µM) for the second.

First: CSCCC1COC(c2cccs2)=N1 (stereo unspecified)
Second: C=CCNC(=O)C1CC1(c1cccc(C)c1)c1cccc(C)c1 (stereo unspecified)
The solubility kinetic of the first is 17-fold higher: 29 µg/mL (≈ 128 µM) for the first, 1.7 µg/mL (≈ 5.57 µM) for the second.

First: Cc1ccc(O)c(NC(=O)c2ccccc2-c2ccccc2C(=O)O)c1
Second: O=C(OCCN=C1NS(=O)(=O)c2ccccc21)c1ccccc1F
The solubility kinetic of the first is higher: > 52.1 µg/mL for the first, 5.7 µg/mL (≈ 16.4 µM) for the second.

In the case of Fc1cc(F)c(NC(=S)N2CCOCC2)c(F)c1, the solubility kinetic is reported as > 41.4 µg/mL.
